One experiment relates to RAW-Blue cells. Briefly: NF-κB transcriptional response in RAW-Blue reporter cells. Type of experiment: cell-based, mouse. The following applies: 1 µM, 18 h, with or without NOD2 antagonist SG84 10 µM. An excerpt: Given that cells of the monocyte-macrophage lineage are among the primary responders to NOD2 stimuli,[28] we also examined the effect of 40 on the NF-κB transcriptional response in RAW-Blue reporter cells. These cells, which, similarly to the HEK-Blue cells described above, stably express an NF-κB-inducible SEAP reporter gene, are derived from RAW264.7 mouse macrophages, which in addition to NOD2 also express NOD1 and most Toll-like receptors (TLRs).
Figure S4. NF-kB transcriptional response in the RAW-Blue mouse macrophage reporter cell line. […] Statistical significance was determined by one-way ANOVA followed by Bonferroni’s multiple comparisons test; ***, p < 0.001 versus vehicle-treated control; ###, p < 0.001 versus MDP, 40, or LPS alone; ns, not significant. […]
RAW-Blue cells were seeded (100,000 cells/well) in 96 -well plates in 200 µL growth medium (without Normocin and Zeocin) and treated with MDP (1 µM) or 40 (1 µM), in the presence or absence of LPS ( 10 ng/mL), or the corresponding vehicle (0.1% DMSO). […] After 2 h of incubation (37 °C), SEAP activity was determined spectrophotometrically as absorbance at 630 nm (BioTek Synergy microplate reader; Winooski, VT, USA). […]
Cytokine production was determined with BD Cytometric Bead Array human inflammatory cytokines kit […]

For the next experiment, the system named is PBMCs. Briefly: Cytokine release from peripheral blood mononuclear cells. Type of experiment: cell-based. As to conditions: human PBMCs. An excerpt: Encouraged by the potent NOD2 activity of 40, we preliminarily evaluated its immunostimulatory potential in human primary peripheral blood mononuclear cells (PBMCs). Specifically, we first investigated the ability of 40 to induce cytokine production in PBMCs. While activation of NOD2 alone is sufficient to elicit cytokine responses, these responses are usually of low intensity. However, NOD2 agonists can act in synergy with ligands of other innate immune receptors and proinflammatory cytokines to induce considerably stronger responses. We were particularly intrigued by the synergistic interactions between NOD2, TLR4, and IFN-γ. The synergy between NOD2 agonists and TLR4 agonists in terms of cytokine secretion, including IFN-γ, is well-established.[29],[30] Similarly, IFN-γ has previously been reported to augment the MDP-mediated activation and cytokine production by dendritic cells and macrophages.[31],[32]
Figure 2 Synergistic effects of 40 with LPS and IFN-γ on induction of cytokine production from PBMCs. Cytokine concentrations were measured after 18 h of stimulation with NOD2 agonists (1 μM) in the presence or absence of LPS (10 ng/mL) and IFN-γ (200 U/mL) or the corresponding vehicle (0.1% DMSO; NT). Data are expressed as mean ± SEM of three independent experiments. Statistical significance was determined by one-way ANOVA followed by Bonferroni’s multiple-comparisons test; *, p < 0.05, **, p < 0.01, ***, p < 0.001 versus vehicle-treated control; ##, p < 0.01, ###, p < 0.001 versus 40 or LPS alone.
Figure S5. The effect of 40 on the production of cytokines from human PBMCs is NOD2 -dependent. PBMCs were pre-incubated for 1 h in the presence or absence of the NOD2 antagonist SG84 (10 µM), before the addition of 40 (1 µM). Cytokine concentrations in supernatants were measured after 18 h stimulation.
Data are expressed as mean s ± SEM of 3 independent experiments. Statistical significance was determined by one-way ANOVA followed by Bonferroni’s multiple comparisons test; **, p < 0.01, ***, p < 0.001. […]
4.9 Cytokine release from peripheral blood mononuclear cells
Peripheral blood mononuclear cells were seeded ( 500,000 cells/well) in 24-well plates in 500 µL growth medium and treated with MDP (1 µM), 2 (1 µM), or 40 (1 µM), in the presence or absence of LPS (10 ng/mL) or IFN-γ (200 U/mL), or the corresponding vehicle (0.1% DMSO). In some wells, PBMCs were pre-treated for 1 h with the NOD2 antagonist SG84 (10 µM), before the addition of 40 (1 µM). Cell-free supernatants were collected after 18 h of incubation (37 °C, 5% CO2) and stored at -80 °C until tested.
Cytokine production was determined with BD Cytometric Bead Array human inflammatory cytokines kit (BD Bioscience) on an Attune NxT flow cytometer (Thermo Fisher Scientific, Waltham, MA, USA). Standard curves were generated using recombinant cytokines contained in the kit. The data were analyzed using the FlowJo (Tree Star, Inc., Ashland, OR, USA) and Prism (GraphPad, San Diego, CA, USA) software.

In the case of `CCOC(=O)CC[C@@H](NC(=O)[C@@H](NC(=O)CNC(=O)/C=C/c1ccc(OC(=O)CC23CC4CC(CC(C4)C2)C3)c(OC)c1)C(C)C)C(=O)OCC` [Compound 40], the “activation of RAW-Blue cells (NF-κB transcriptional response)” value with RAW-Blue cells is “activate RAW-Blue cells in a NOD2-dependent manner”. In the experiment with PBMCs (1 μM + IFN-γ 200 U/mL, 18 h), the “production of IL-1β, IL-6 and TNF-α in combination with IFN-γ” value was “synergistically increased”; the “production of IL-8 in combination with IFN-γ” value is given as “no apparent effect”. Moreover, the “production of IL-1β, IL-6 and TNF-α in combination with LPS” value in the experiment with PBMCs (1 μM + LPS 10 ng/mL, 18 h) was “superadditive manner”. Moreover, the “NOD2 dependence of cytokine production” value in the experiment with PBMCs (40 1 µM, pretreatment with NOD2 antagonist SG84 10 µM) is listed as “entirely NOD2-dependent”. The “production of IL-1β, IL-6, IL-8 and TNF-α, stimulant alone” value in the experiment with PBMCs (18 h, NOD2 agonists 1 μM, LPS 10 ng/mL, IFN-γ 200 U/mL) is given as “modest production”.

The record behind these values is PMC9377006, “Discovery of Desmuramylpeptide NOD2 Agonists with Single-Digit Nanomolar Potency” (ACS Medicinal Chemistry Letters, 2022).
